PubChem BioAssay AID1963975 (Molecular Pharmacology Branch, DTP, NCI, 2024)

Tested on: 624824-186-R-J2-PDC multicell spheroids, viability
Test: Anticancer human tumor 624824-186-R-J2-PDC patient-derived colon adenocarcinoma cell line growth inhibition [PI3K]
Conditions: for IC50: curve of first compound; for viability, T/C: stronger effect = lower value
How it was run: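 Tumor cells grown as multi-cell spheroids with HUVEC endothelial cells and MSC fibroblast-like stroma were treated with targeted agents combined with inavolisib, alpelisib, duvelisib or copanlisib. Doses fell in half-log steps from near clinical Cmax, else from 10 microM. Viability was measured.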

[1] = second compound 0.0316 µM, first compound 0.0316 µM
[2] = second compound 0.0316 µM, first compound 0.1 µM
[3] = second compound 0.1 µM, first compound 0.0316 µM
[4] = second compound 0.1 µM, first compound 0.1 µM
[5] = second compound 0.316 µM, first compound 0.0316 µM
[6] = second compound 0.316 µM, first compound 0.1 µM
[7] = second compound 1 µM, first compound 0.0316 µM
[8] = second compound 1 µM, first compound 0.1 µM
[9] = second compound 3.16 µM, first compound 0.0316 µM
[10] = second compound 3.16 µM, first compound 0.1 µM
[11] = second compound 10 µM, first compound 0.0316 µM
[12] = second compound 10 µM, first compound 0.1 µM
[13] = second compound 0.0316 µM, first compound 0.316 µM
[14] = second compound 0.0316 µM, first compound 1 µM
[15] = second compound 0.0316 µM, first compound 3.16 µM
[16] = second compound 0.0316 µM, first compound 10 µM
[17] = second compound 0.1 µM, first compound 0.316 µM
[18] = second compound 0.1 µM, first compound 1 µM
[19] = second compound 0.1 µM, first compound 3.16 µM
[20] = second compound 0.1 µM, first compound 10 µM
[21] = second compound 0.316 µM, first compound 0.316 µM
[22] = second compound 0.316 µM, first compound 1 µM
[23] = second compound 0.316 µM, first compound 3.16 µM
[24] = second compound 0.316 µM, first compound 10 µM
[25] = second compound 1 µM, first compound 0.316 µM
[26] = second compound 1 µM, first compound 1 µM
[27] = second compound 1 µM, first compound 3.16 µM
[28] = second compound 1 µM, first compound 10 µM
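Also: spheroids exposed to agents for 7 days before viability read.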
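For viability, T/C in this document: 100% = DMSO vehicle treated spheroids.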

For `Cn1ncnc1[C@H]1c2n[nH]c(=O)c3cc(F)cc(c23)N[C@@H]1c1ccc(F)cc1` + Cc1nc(NC(=O)N2CCCC2C(N)=O)sc1-c1ccnc(C(C)(C)C(F)(F)F)c1, the IC50 (second compound 0.0316 µM) was > 0.1 µM, the IC50 (second compound 0.1 µM) was > 0.1 µM and the IC50 (second compound 0.316 µM) was > 0.1 µM. The IC50 (second compound 1 µM) was > 0.1 µM, the IC50 (second compound 3.16 µM) was > 0.1 µM and the IC50 (second compound 10 µM) was > 0.1 µM. The viability, T/C (second compound 0.0316 µM, first compound 0.000316 µM) was 89.5%, the viability, T/C (second compound 0.0316 µM, first compound 0.001 µM) was 79.8% and the viability, T/C (second compound 0.0316 µM, first compound 0.00316 µM) was 79.5%. For the same compound, the viability, T/C (second compound 0.0316 µM, first compound 0.01 µM) was 106%, the viability, T/C [1] was 89% and the viability, T/C [2] was 101%. It also gave a viability, T/C (second compound 0.1 µM, first compound 0.000316 µM) of 91.8%, a viability, T/C (second compound 0.1 µM, first compound 0.001 µM) of 87.4% and a viability, T/C (second compound 0.1 µM, first compound 0.00316 µM) of 105%. For the same compound, the viability, T/C (second compound 0.1 µM, first compound 0.01 µM) was 80.9%, the viability, T/C [3] was 70.2% and the viability, T/C [4] was 86.4%. It also gave a viability, T/C (second compound 0.316 µM, first compound 0.000316 µM) of 95.4%, a viability, T/C (second compound 0.316 µM, first compound 0.001 µM) of 92.9% and a viability, T/C (second compound 0.316 µM, first compound 0.00316 µM) of 101%. It also gave a viability, T/C (second compound 0.316 µM, first compound 0.01 µM) of 88%, a viability, T/C [5] of 108% and a viability, T/C [6] of 80.4%. For the same compound, the viability, T/C (second compound 1 µM, first compound 0.000316 µM) was 88.3%, the viability, T/C (second compound 1 µM, first compound 0.001 µM) was 102% and the viability, T/C (second compound 1 µM, first compound 0.00316 µM) was 78.1%. The viability, T/C (second compound 1 µM, first compound 0.01 µM) was 97.1%, the viability, T/C [7] was 101% and the viability, T/C [8] was 86.3%. It also gave a viability, T/C (second compound 3.16 µM, first compound 0.000316 µM) of 86.8%, a viability, T/C (second compound 3.16 µM, first compound 0.001 µM) of 78.6% and a viability, T/C (second compound 3.16 µM, first compound 0.00316 µM) of 76.3%. For the same compound, the viability, T/C (second compound 3.16 µM, first compound 0.01 µM) was 82.9%, the viability, T/C [9] was 92.4% and the viability, T/C [10] was 82.1%. It also gave a viability, T/C (second compound 10 µM, first compound 0.000316 µM) of 87.5%, a viability, T/C (second compound 10 µM, first compound 0.001 µM) of 84.7% and a viability, T/C (second compound 10 µM, first compound 0.00316 µM) of 80.3%. For the same compound, the viability, T/C (second compound 10 µM, first compound 0.01 µM) was 71.8%, the viability, T/C [11] was 77.3% and the viability, T/C [12] was 84.8%.

With `C[C@@H](NC(=O)c1ncnc(N)c1Cl)c1ncc(C(=O)Nc2cc(C(F)(F)F)c(Cl)cn2)s1` + CC(Nc1ncnc2nc[nH]c12)c1cc2cccc(Cl)c2c(=O)n1-c1ccccc1 the IC50 (second compound 0.0316 µM) was > 10 µM, the IC50 (second compound 0.1 µM) was > 10 µM and the IC50 (second compound 0.316 µM) was > 10 µM. The IC50 (second compound 1 µM) was > 10 µM, the IC50 (second compound 3.16 µM) was > 10 µM and the IC50 (second compound 10 µM) was > 10 µM. For the same compound, the viability, T/C [1] was 94%, the viability, T/C [2] was 106% and the viability, T/C [13] was 78.6%. It also gave a viability, T/C [14] of 69.9%, a viability, T/C [15] of 55.4% and a viability, T/C [16] of 67.2%. For the same compound, the viability, T/C [3] was 85.3%, the viability, T/C [4] was 82.3% and the viability, T/C [17] was 81.1%. For the same compound, the viability, T/C [18] was 67.7%, the viability, T/C [19] was 57% and the viability, T/C [20] was 56%. For the same compound, the viability, T/C [5] was 100%, the viability, T/C [6] was 99.3% and the viability, T/C [21] was 89.8%. For the same compound, the viability, T/C [22] was 65.4%, the viability, T/C [23] was 55.9% and the viability, T/C [24] was 58%. It also gave a viability, T/C [7] of 110%, a viability, T/C [8] of 85.6% and a viability, T/C [25] of 87.3%. For the same compound, the viability, T/C [26] was 63.1%, the viability, T/C [27] was 55% and the viability, T/C [28] was 54.1%. The viability, T/C [9] was 94.5%, the viability, T/C [10] was 93.9% and the viability, T/C (second compound 3.16 µM, first compound 0.316 µM) was 65.4%. The viability, T/C (second compound 3.16 µM, first compound 1 µM) was 65.6%, the viability, T/C (second compound 3.16 µM, first compound 3.16 µM) was 54.7% and the viability, T/C (second compound 3.16 µM, first compound 10 µM) was 59.6%. For the same compound, the viability, T/C [11] was 95.9%, the viability, T/C [12] was 92% and the viability, T/C (second compound 10 µM, first compound 0.316 µM) was 99.9%. For the same compound, the viability, T/C (second compound 10 µM, first compound 1 µM) was 77.2%, the viability, T/C (second compound 10 µM, first compound 3.16 µM) was 65.7% and the viability, T/C (second compound 10 µM, first compound 10 µM) was 57.8%.

With `CC(Cn1ccc(-c2ccc(C#N)c(Cl)c2)n1)NC(=O)c1cc(C(C)O)[nH]n1` (stereo unspecified) + CC(Nc1ccc2c(c1)OCCn1cc(N3C(=O)OCC3C(F)F)nc1-2)C(N)=O the IC50 (second compound 0.00316 µM) was > 10 µM, the IC50 (second compound 0.01 µM) was > 10 µM and the IC50 (second compound 0.0316 µM) was > 10 µM. For the same compound, the IC50 (second compound 0.1 µM) was > 10 µM, the IC50 (second compound 0.316 µM) was > 10 µM and the IC50 (second compound 1 µM) was > 10 µM. It also gave a viability, T/C (second compound 0.00316 µM, first compound 0.0316 µM) of 86.5%, a viability, T/C (second compound 0.00316 µM, first compound 0.1 µM) of 102% and a viability, T/C (second compound 0.00316 µM, first compound 0.316 µM) of 108%. It also gave a viability, T/C (second compound 0.00316 µM, first compound 1 µM) of 103%, a viability, T/C (second compound 0.00316 µM, first compound 3.16 µM) of 107% and a viability, T/C (second compound 0.00316 µM, first compound 10 µM) of 127%. It also gave a viability, T/C (second compound 0.01 µM, first compound 0.0316 µM) of 124%, a viability, T/C (second compound 0.01 µM, first compound 0.1 µM) of 88.3% and a viability, T/C (second compound 0.01 µM, first compound 0.316 µM) of 88.5%. It also gave a viability, T/C (second compound 0.01 µM, first compound 1 µM) of 97.7%, a viability, T/C (second compound 0.01 µM, first compound 3.16 µM) of 99.5% and a viability, T/C (second compound 0.01 µM, first compound 10 µM) of 116%. The viability, T/C [1] was 77.1%, the viability, T/C [2] was 79.6% and the viability, T/C [13] was 83.1%. It also gave a viability, T/C [14] of 93.9%, a viability, T/C [15] of 108% and a viability, T/C [16] of 104%. It also gave a viability, T/C [3] of 81.5%, a viability, T/C [4] of 77.9% and a viability, T/C [17] of 76.9%. It also gave a viability, T/C [18] of 82.1%, a viability, T/C [19] of 93.2% and a viability, T/C [20] of 103%. For the same compound, the viability, T/C [5] was 76.7%, the viability, T/C [6] was 91.1% and the viability, T/C [21] was 103%. It also gave a viability, T/C [22] of 69.4%, a viability, T/C [23] of 83.4% and a viability, T/C [24] of 95.9%. It also gave a viability, T/C [7] of 87.9%, a viability, T/C [8] of 76% and a viability, T/C [25] of 88.2%. The viability, T/C [26] was 94%, the viability, T/C [27] was 76.4% and the viability, T/C [28] was 95.9%.
